Laboratory results taken from patent publication US20240165089A1, “METHOD FOR TREATING MYOPIA WITH VINPOCETINE” (EYE HOSPITAL, WENZHOU MEDICAL UNIVERSITY, priority 2021, published 2024).
Several values for one entry are separate records, joined by “and”; a condition that tells them apart may be missing. Identical values can stand only once.

Experiments:
[1] = system: form deprivation myopia model of guinea pigs; assay: FDM guinea pig model, subconjunctival injection, salmeterol/tiotropium/vinpocetine; settings: FDM, vinpocetine 1 μM alone, subconjunctival, 2 weeks
From the text: The form deprivation myopia model of guinea pigs described in the present invention was used to evaluate the efficacy. […] On the first day of the experiment, guinea pigs were subjected to form deprivation at 8 a.m. using a mask method, with the right eye covered (experimental eye) and the left eye uncovered (contralateral eye). Starting from the day of modeling, solvents or drugs for the corresponding groups were given to the experimental eyes at 9-10 a.m. every day by eyeball subconjunctival injection at an injection volume of 100 μL, once a day for 2 weeks. The refraction and axial parameters of the animals were detected before the start of the efficacy experiment and at the end of the experiment. All data collection and processing methods were the same as in other embodiments of the present invention. The statistical basis was the difference between the experimental eye and the contralateral eye of the same subject individual.

[2] = system: form deprivation myopia (FDM) guinea pig model; assay: form deprivation myopia (FDM) guinea pig model, injection around the eyeball; format: in vivo
From the text: The form deprivation and lens-induced guinea pig myopia model is a classic and recognized myopia animal model in the field. The model can be used to evaluate the efficacy and safety of drugs for treating myopia. The construction method of the model is well known to those skilled in the art. The animal modeling and administration route in this application refer to the scientific literature previously published by this research group (Sen Zhang, Invest Ophthalmol Vis Sci. 2019 Jul. 1; 60(8):3074-3083.; Miaozhen Pan, Exp Eye Res. 2021 January; 202:108332.), specifically, this application uses the following exemplary construction method of the form deprivation and lens-induced guinea pig myopia model:
three-week-old tricolor guinea pigs (both male and female, simulating humans aged 3-26 years old) were used and raised in the experimental animal room of Wenzhou Medical University in a 12-hour light (400-500 lux)/12-hour dark environment with free access to water and food. The myopia model adopted monocular form deprivation (FD) and lens induction (LI) modeling methods. […] In the lens induction group, a −4D lens was fixed in front of the right eye of the animal, and the left eye obtained normal vision. For the above animals, the lenses were cleaned twice a day to prevent the lenses from blurring. The animals in the experimental group were administrated at 9:00-9:30 am every day. […] The administration process for each animal was controlled in about 10 seconds. Administration began on the day of modeling, and was continuous for 2 weeks for the form deprivation group and was continuous for 1 week for the lens induction group. This experiment has been reviewed by the Experimental Animal Ethics Committee of Wenzhou Medical University.
The inventors prepared a 5 μM (i.e., 1.75 μg/mL) vinpocetine stock solution and stored at −80° C. The solvent was physiological saline. Before administration experiment, the stock solution was diluted with physiological saline to 1 μM, 0.1 μM, and 0.01 μM, respectively. During the formulation process of vinpocetine eye drops, the solubility can be increased by using conventional physical methods such as heating and stirring, or acids can also be used to adjust the PH value to increase solubility, and finally, the PH value can be adjusted to 7.31.
2. Form deprivation plus drug injection group: • wearing an eye mask on one eye and injecting vinpocetine (0.01 μM: 0.1 mL/day) into the eye wearing the eye mask for 2 weeks, sample size=15; • wearing an eye mask on one eye and injecting vinpocetine (0.1 μM: 0.1 mL/day) into the eye wearing the eye mask for 2 weeks, sample size=20; • wearing an eye mask on one eye and injecting vinpocetine 1.00 μM: 0.1 mL/day) into the eye wearing the eye mask for 2 weeks, sample size=22; • 3.
All animals in the same model efficacy experiment were measured within the same time period, and the first measurement was at 3 weeks of age, that is, before drug administration. Refractions and eyeball parameters were measured for the animals in the above FDM group before the experiment, after 1 week of administration in the experiment and after 2 weeks of administration in the experiment and for the animals in the LIM group before the experiment, after 3 days of administration in the experiment and after 7 days of administration in the experiment, respectively. The refractions were measured using an eccentric infrared photoretinoscope (EIR) built in our laboratory. Each eye was measured three times and the average was taken as the final result. The axial parameters of the guinea pig's eyeballs were measured using the A-ultrasound probe in the CinescanA/B ultrasonic diagnostic instrument (QuantelMedical, Aviso, France). The ultrasonic frequency was 11 MHz. The ultrasonic propagation speeds of different refractive media of the eyeball were set as: 1557.5 m/s for the anterior chamber, 1723.3 m/s for the lens, and 1540 m/s for the vitreous body.

[3] = system: form deprivation myopia model of guinea pigs; assay: FDM guinea pig model, eye drops (non-invasive administration); format: in vivo; settings: for refraction difference between the eyes: FDM
Protocol: The purpose of this experiment was to evaluate the effect of vinpocetine on myopia through non-invasive administration. All tested drugs were formulated into eye drops. […] No other active substances or excipients were added to the above eye drops.

[4] = rats; cited from earlier work
[5] = system: choroid of LIM guinea pigs; assay: choroidal thickness and blood flow by OCTA, LIM group; format: in vivo, guinea pig; settings: 1 week, vs solvent injection group
Protocol: The choroidal blood flow parameters and choroidal thickness were measured for the animals in the above FDM group after 1 week of continuous administration and at the end of the 2 week-administration experiment and for the animals in the LIM group at the end of the 7 day-administration experiment. Choroidal blood flow parameters and thickness were measured using a modified commercial OCTA (Spectralis HRA+OCT, OCTA, Heidelberg, Germany) which is more suitable for animal eyeballs. Before the measurement, the guinea pigs were fully anesthetized (a mixture of ketamine hydrochloride 60 mg/kg and xylazine hydrochloride 9 mg/kg, intraperitoneally injected), and then the guinea pig OCTA images were obtained, and the measurement results were quantified through a self-written program (MatLab R2017a, MathWorks). Real-time quantitative detection of choroidal blood flow and thickness in guinea pigs was achieved (Sen Zhang, Invest Ophthalmol Vis Sci. 2019 Jul. 1; 60(8):3074-3083).
Vinpocetine is known to improve blood circulation. The inventors used the method of example 1 to detect changes of indicator signals of choroidal thickness ChT and choroidal blood flow ChBP of FDM (1 week and 2 weeks of administration) and LIM (1 week of administration) at different time points during the administration cycle.

[6] = vinpocetine 1 μM, 1 week, vs vehicle
[7] = vinpocetine 5 μM eye drops, 2 weeks
[8] = vinpocetine 5 μM eye drops, 2 weeks (rounded and actual value)

For `CCOC(=O)C1=C[C@]2(CC)CCCN3CCc4c(n1c1ccccc41)[C@@H]32` [vinpocetine], the “refraction change towards negative, axial length elongation and vitreous chamber depth increase vs negative control” value [1] was “significantly inhibited”, the “refraction change towards negative and vitreous chamber depth elongation compared with the negative control group” value ([2]; low-concentration vinpocetine 0.01 μM, two time points, no statistical difference) was “showed an inhibitory trend” and the “refraction difference between the experimental eye and the contralateral eye” value ([2]; vinpocetine 1 μM 0.1 mL/day peribulbar injection, 1 week) was −2.44±1.88 D. The “axial length difference between the experimental eye and the contralateral eye” value ([2]; vinpocetine 1 μM, 1 week) was 0.07±0.05 mm, the “vitreous chamber depth difference between the experimental eye and the contralateral eye” value ([2]; vinpocetine 1 μM, 1 week) was 0.06±0.05 mm and the “inhibition rate for the axial length” value [2, 6] was 39.8%. For the same compound, the “inhibition rate for the vitreous chamber depth” value [2, 6] was 45.0%, the refraction inhibition rate [2, 6] was 50.5% and the “axial length difference between the experimental eye and the contralateral eye” value ([2]; vinpocetine 1 μM, 2 weeks) was 0.08±0.05 mm. For the same compound, the “inhibition rate for the axial length” value ([2]; vinpocetine 1 μM, 2 weeks) was 48.2%, the “inhibition rate for the vitreous chamber depth” value ([2]; vinpocetine 1 μM, 2 weeks) was 43.4% and the “refraction difference between the experimental eye and the contralateral eye” value ([2]; vinpocetine 1 μM, 2 weeks) was −3.36±2.21 D. The refraction inhibition rate ([2]; vinpocetine 1 μM, 2 weeks) was 50.1%, the “vitreous chamber depth difference between the experimental eye and the contralateral eye” value ([2]; vinpocetine 1 μM, 2 weeks) was 0.09±0.05 mm and the “refraction difference between the eyes” value ([3]; vinpocetine 1 μM eye drops 25 μL twice a day, 2 weeks) was −4.81±1.72 D. The “refraction difference between the eyes” value ([3]; vinpocetine 5 μM eye drops 25 μL twice a day, 2 weeks) was −3.80±1.16 D, the refraction inhibition rate ([3]; vinpocetine 1 μM eye drops, 2 weeks) was 26.7% and the “inhibition rate for the axial length” value [3, 7] was 41.4%. The “inhibition rate for the vitreous chamber depth” value [3, 7] was 38.6%, the refraction inhibition rate [3, 7] was 42.1% and the “axial length difference between the eyes” value [3, 8] was 0.09±0.04 mm and 0.0925±0.0406 mm. For the same compound, the “vitreous chamber depth difference between the eyes” value [3, 8] was 0.09±0.04 mm and 0.0869±0.0448 mm, the oral bioavailability [4] was 52% and the “choroidal thickness ChT” value ([5]; not statistically significant) was “only slightly increased”. For the same compound, the “choroidal blood perfusion ChBP” value ([5]; p=0.766) was “only slightly increased”.
